As a reminder, the melting point is the temperature of the solid-liquid transition.

The test system of series [1] is Crabgrass(large) (Digitaria sanguinalis). Nature of the series: Preemergence herbicidal activity, soil spray. Particulars: Table 5, visual score after 3 weeks. The series is classed as in vivo. An excerpt:
(§1) Seeds of the desired test plant species were planted in a soil matrix prepared by mixing a loam soil (43 percent silt, 19 percent clay, and 38 percent sand, with a pH of about 8.1 and an organic matter content of about 1.5 percent) and sand in a 70 to 30 ratio. The soil matrix was contained in plastic pots with a surface area of 113 square centimeters. When required to ensure good germination and healthy plants, a fungicide treatment and/or other chemical or physical treatment was applied. A weighed amount, determined by the highest rate to be tested, of each test compound was placed in a 20 mL glass vial and was dissolved in 4 mL of a 97:3 v/v (volume/volume) mixture of acetone and dimethyl sulfoxide to obtain concentrated stock solutions. […] The stock solutions obtained were diluted with a 99.9:0.1 mixture of water and Tween® 155 surfactant to obtain application solutions of known concentration. The solutions containing the highest concentration to be tested were prepared by diluting 2 mL aliquots of the stock solution with 15 mL of the mixture and lower concentrations were prepared by serial dilution of the stock solution. A 2.5 mL aliquot of each solution of known concentration was sprayed evenly onto the soil surface (113 sq. cm) of each seeded pot using a Cornwall 5.0 mL glass syringe fitted with a TeeJet TN-3 hollow cone nozzle to obtain thorough coverage of the soil in each pot. Control pots were sprayed in the same manner with the aqueous mixture. The treated pots and control pots were placed in a greenhouse maintained with an approximate 15 hr photoperiod and temperatures of about 23-29° C. during the day and 22-28° C. during the night. Nutrients and water were added on a regular basis and supplemental lighting was provided with overhead metal halide 1000-Watt lamps as necessary. The water was added by top-irrigation.

For series [2], the system named is Giant Foxtail (Setaria faberi). Nature of the series: Preemergence herbicidal activity, soil spray. The series is classed as in vivo. Particulars: Table 5, visual score after 3 weeks.
Source text: as §1

Series [3] has as its system Pigweed (redroot) (Amaranthus retroflexus). Nature of the series: Preemergence herbicidal activity, soil spray. The series is classed as in vivo. Particulars: Table 5, visual score after 3 weeks.
Source text: as §1

The test system of series [4] is Lambsquarter (Chenopodium album). Put plainly: Preemergence herbicidal activity, soil spray. The class given is in vivo. Particulars: Table 5, visual score after 3 weeks.
Source text: as §1

Series [5] deals with Cocklebur (Xanthium strumarium). Nature of the series: Postemergence herbicidal activity, greenhouse spray. The series is classed as in vivo. Particulars: Table 1, visual score after 2 weeks; for pest or weed control at 500 ppm / pest or weed control at 125 ppm: Xanthium strumarium, post-emergence, 336 h, read-out: Post-emergent % control XANST; for pest or weed control at 500 ppm: rate 500 ppm, 0 no injury, 100 complete kill. On the procedure:
(§2) When required to ensure good germination and healthy plants, a fungicide treatment and/or other chemical or physical treatment was applied. The plants were grown for 7-21 days in a greenhouse with an approximate 15 hr photoperiod which was maintained at about 23-29° C. during the day and 22-28° C. during the night. Nutrients and water were added on a regular basis and supplemental lighting was provided with overhead metal halide 1000-Watt lamps as necessary. The plants were employed for testing when they reached the first or second true leaf stage. A weighed amount, determined by the highest rate to be tested, of each test compound was placed in a 20 mL glass vial and was dissolved in 4 mL of a 97:3 v/v (volume/volume) mixture of acetone and dimethyl sulfoxide (DMSO) to obtain concentrated stock solutions. […] The concentrated stock solutions obtained were diluted with an aqueous mixture containing acetone, water, isopropyl alcohol, DMSO, At plus 411 F crop oil concentrate, and Triton X-155 surfactant in a 48.5:39:10:1.5:1.0:0.02 v/v ratio to obtain spray solutions of known concentration. The solutions containing the highest concentration to be tested were prepared by diluting 2 mL aliquots of the stock solution with 13 mL of the mixture and lower concentrations were prepared by serial dilution of the stock solution. Approximately 1.5 mL aliquots of each solution of known concentration were sprayed evenly onto each of the test plant pots using a DeVilbiss atomizer driven by compressed air pressure of 2 to 4 psi (140 to 280 kiloPascals) to obtain thorough coverage of each plant. Control plants were sprayed in the same manner with the aqueous mixture. […] The treated plants and control plants were placed in a greenhouse as described above and watered by sub-irrigation to prevent wash-off of the test compounds.

Series [6] relates to Barnyardgrass (Echinochloa crus-galli). Described as above. The class given is in vivo. Particulars: Table 1, visual score after 2 weeks; for pest or weed control at 500 ppm / pest or weed control at 125 ppm: Echinochloa crus-galli, post-emergence, 336 h, read-out: Post-emergent % control ECHCG; for pest or weed control at 500 ppm: rate 500 ppm. Here is the method:
as §2

Series [7] concerns Yellow nutsedge (Cyperus esculentus). The series is described as above. Particulars: Table 1, visual score after 2 weeks. The series is classed as in vivo. On the procedure: as §2
The test system of series [8] is Lambsquarter (Chenopodium album). The description is as above. The class given is in vivo. Particulars: Table 1, visual score after 2 weeks; for pest or weed control at 500 ppm / pest or weed control at 125 ppm: Chenopodium album, post-emergence, 336 h, read-out: Post-emergent % control CHEAL; for pest or weed control at 500 ppm: rate 500 ppm. Here is the method: as §2

Setting [9] is: Digitaria sanguinalis, pre-emergence, 504 h, rate 560 ppm, read-out: Pre-emergent % control DIGSA.
[10] abbreviates: Setaria faberi, pre-emergence, 504 h, rate 560 ppm, read-out: Pre-emergent % control SETFA.
Setting [11] is: Amaranthus retroflexus, pre-emergence, 504 h, rate 560 ppm, read-out: Pre-emergent % control AMARE.
The mark [12] stands for this setting: Chenopodium album, pre-emergence, 504 h, rate 560 ppm, 100 complete kill or no germination, read-out: Pre-emergent % control CHEAL.
The mark [13] stands for this setting: Cyperus, post-emergence, 336 h, rate 125 ppm, read-out: Post-emergent % control CYPES.
Where [14] appears, read: Digitaria sanguinalis, pre-emergence, 504 h, rate 140 ppm, read-out: Pre-emergent % control DIGSA.
Setting [15] is: Setaria faberi, pre-emergence, 504 h, rate 140 ppm, read-out: Pre-emergent % control SETFA.
Where [16] appears, read: Amaranthus retroflexus, pre-emergence, 504 h, rate 140 ppm, read-out: Pre-emergent % control AMARE.
The mark [17] stands for this setting: rate 560 ppm, 100 complete kill or no germination.

`CCc1ccc(-c2cc(N)c(Cl)c(C(=O)OC)n2)cc1` [Compound 30, Methyl 4-amino-3-chloro-6-(4-ethylphenyl)pyridine-2-carboxylate] displayed a melting point of 119 °C. For the same molecule, the pest or weed control at 560 ppm in series [1] (setting [9]) was 100%. The pest or weed control at 560 ppm in [2] (setting [10]) amounted to 70%. Further, the pest or weed control at 560 ppm in [3] (setting [11]) is 100%. Besides, in series [4] (setting [12]), the pest or weed control at 560 ppm is 90%.
`Nc1c(F)c(-c2ccc(Cl)cc2)nc(C(=O)O)c1Cl` [Compound 173, 4-Amino-3-chloro-5-fluoro-6-(4-chlorophenyl)pyridine-2-carboxylic acid]: the pest or weed control at 500 ppm stood at 100% in series [5]; 100% in series [6]; 100% in series [7] (Cyperus, post-emergence, 336 h, rate 500 ppm, read-out: Post-emergent % control CYPES); 100% in [8]. In addition, the pest or weed control at 560 ppm in [1] (setting [9]), in series [2] (setting [10]), in series [3] (setting [11]) and in [4] (setting [12]) was 100% in each case.
Take `Nc1c(F)c(C(=O)O)nc(-c2ccc3c(c2)OCO3)c1F` [Compound 207, 4-Amino-3,5-difluoro-6-(3,4-methylenedioxyphenyl)pyridine-2-carboxylic acid]: the melting point was in the range of 174 to 175 °C. In addition, in [5] (rate 125 ppm), the pest or weed control at 125 ppm worked out at 90%. Moreover, the pest or weed control at 125 ppm in [6] (rate 125 ppm) was 70%. Also, the pest or weed control at 125 ppm in series [7] (setting [13]) was found to be 40%. Moreover, the pest or weed control at 125 ppm in series [8] (rate 125 ppm) was 70%. Also, the pest or weed control at 140 ppm in [1] (setting [14]) was found to be 95%. In [2] (setting [15]), the pest or weed control at 140 ppm was 50%. In series [3] (setting [16]), the pest or weed control at 140 ppm came out at 100%.
As for `Cc1ccc(-c2cc(-n3cccc3)c(Cl)c(C(=O)O)n2)cc1` [Compound 180, 3-chloro-6-(4-methylphenyl)-4-(N-pyrolyl)pyridine-2-carboxylic acid], the “Post-emergent % control XANST” value in series [5] (rate 250 ppm) turned out to be 80%. In series [6] (rate 250 ppm), the “Post-emergent % control ECHCG” value worked out at 70%. Also, the “Post-emergent % control CYPES” value in series [7] (rate 250 ppm) is reported as 30%. Moreover, in series [8] (rate 250 ppm), the “Post-emergent % control CHEAL” value stood at 100%. Moreover, the “Pre-emergent % control DIGSA” value in series [1] (rate 560 ppm) amounted to 95%. Besides, the “Pre-emergent % control SETFA” value in [2] (rate 560 ppm) worked out at 100%. In addition, in [3] (rate 560 ppm), the “Pre-emergent % control AMARE” value was 100%. For the same molecule, in [4] (setting [17]), the “Pre-emergent % control CHEAL” value came out at 100%.
On to `Nc1cc(-c2ccc(C(F)(F)F)cc2Cl)nc(C(=O)O)c1Cl` [Compound 184, 4-Amino-3-chloro-6-(2-chloro-4-(trifluoromethyl)phenyl)pyridine-2-carboxylic acid], for which the pest or weed control at 125 ppm was 100% in [5] (rate 125 ppm), 70% in series [6] (rate 125 ppm), 40% in [7] (setting [13]) and 70% in series [8] (rate 125 ppm). Further, the pest or weed control at 140 ppm turned out to be 90% in [1] (setting [14]); 70% in [2] (setting [15]); 85% in series [3] (setting [16]); 90% in [4] (Chenopodium album, pre-emergence, 504 h, rate 140 ppm, read-out: Pre-emergent % control CHEAL).
With `COC(=O)c1nc(-c2ccc(Cl)cc2F)cc(N)c1Cl` [Compound 59, Methyl 4-amino-3-chloro-6-(4-chloro-2-fluorophenyl)pyridine-2-carboxylate], the melting point lay in the range of 107 to 109 °C. Further, the pest or weed control at 500 ppm in series [5] is 100%. The pest or weed control at 500 ppm in [6] amounted to 80%. Also, the pest or weed control at 500 ppm in series [8] amounted to 100%. For the same molecule, in [1] (Digitaria sanguinalis, pre-emergence, 504 h, rate 280 ppm, read-out: Pre-emergent % control DIGSA), the pest or weed control at 280 ppm turned out to be 100%. In addition, the pest or weed control at 280 ppm in series [2] (Setaria faberi, pre-emergence, 504 h, rate 280 ppm, read-out: Pre-emergent % control SETFA) worked out at 100%. The pest or weed control at 280 ppm in [3] (Amaranthus retroflexus, pre-emergence, 504 h, rate 280 ppm, read-out: Pre-emergent % control AMARE) was determined as 100%. Moreover, the pest or weed control at 280 ppm in series [4] (Chenopodium album, pre-emergence, 504 h, rate 280 ppm, read-out: Pre-emergent % control CHEAL) is 100%.
For `Nc1cc(-c2ccc(Cl)c(C(F)(F)F)c2)nc(C(=O)O)c1Cl` [Compound 179, 4-Amino-3-chloro-6-(4-chloro-3-(trifluoromethyl)phenyl)pyridine-2-carboxylic acid], the melting point was 176 °C. In series [1] (setting [9]), the pest or weed control at 560 ppm is 98%. Moreover, in [2] (setting [10]), the pest or weed control at 560 ppm is 98%. In series [3] (setting [11]), the pest or weed control at 560 ppm is 100%. Besides, the pest or weed control at 560 ppm in series [4] (setting [12]) is 100%.
Turning to `Nc1c(F)c(-c2ccc(C(F)(F)F)cc2)nc(C(=O)O)c1Cl` [Compound 172, 4-Amino-3-chloro-5-fluoro-6-(4-trifluorophenyl)pyridine-2-carboxylic acid], in series [5] (rate 125 ppm), the “Post-emergent % control XANST” value is 100%. Moreover, in series [6] (rate 125 ppm), the “Post-emergent % control ECHCG” value came to 90%. Moreover, the “Post-emergent % control CYPES” value in series [7] (rate 125 ppm) is on record as 90%. Besides, in series [8] (rate 125 ppm), the “Post-emergent % control CHEAL” value was 90%. The “Pre-emergent % control DIGSA” value in series [1] (rate 140 ppm) came to 95%. Further, the “Pre-emergent % control SETFA” value in series [2] (rate 140 ppm) came out at 90%. Also, in [3] (rate 140 ppm), the “Pre-emergent % control AMARE” value came to 95%. Besides, in series [4] (rate 140 ppm), the “Pre-emergent % control CHEAL” value worked out at 90%.
With `COC(=O)c1nc(-c2ccc(C)cc2)cc(-n2cccc2)c1Cl` [Compound 89, Methyl 4-N-pyrolyl-3-chloro-6-(4-methylphenyl)pyridine-2-carboxylate], the “Post-emergent % control XANST” value in [5] (rate 250 ppm) turned out to be 100%. Moreover, in series [6] (rate 250 ppm), the “Post-emergent % control ECHCG” value came to 90%. The “Post-emergent % control CYPES” value in series [7] (rate 250 ppm) is 50%. In series [8] (rate 250 ppm), the “Post-emergent % control CHEAL” value stood at 100%. Further, in [1] (rate 560 ppm), the “Pre-emergent % control DIGSA” value worked out at 90%. Also, the “Pre-emergent % control SETFA” value in [2] (rate 560 ppm) came to 85%. Also, in series [3] (rate 560 ppm), the “Pre-emergent % control AMARE” value was found to be 100%. The “Pre-emergent % control CHEAL” value in [4] (setting [17]) is 100%.

The values above are taken from patent US6784137B2, “6-aryl-4-aminopicolinates and their use as herbicides” (Dow AgroSciences LLC, priority 2001, dated 2004).
